Results as given in paper PMC8428848, “Ancient role of sulfakinin/cholecystokinin-type signalling in inhibitory regulation of feeding processes revealed in an echinoderm” (eLife, 2021).
Where two headings read alike, the source gives them in different places. Blank lines part the entries; values can stand above or below the molecule they belong to. Square brackets hold non-standard residues; d marks the D form. Ends that are not written are not given here. * marks the point of attachment. pGlu = O=C1CC[C@@H](C(=O)O)N1; SO3H = O=S(=O)(O)*

Columns and labels:
[1] = tested on: affinity-purified rabbit antibodies to ArSK/CCK1; test: ELISA specificity test of affinity-purified antibodies to ArSK/CCK1; format: binding; settings: TEA fraction diluted 1:10; peptide 0.1 nmol (100 µl of 1 µM); mean of six replicates
Source text: To generate antibodies to ArSK/CCK1, an N-terminally truncated peptide analog of ArSK/CCK1 with the addition of a reactive N-terminal lysine residue was synthesized (KY(SO3H)GHGLFW-NH2 , Peptide Protein Research Ltd, Fareham, UK). To generate antibodies to ArSK/CCKR, a peptide corresponding to the C-terminal 15 amino acids of ArSK/CCK-R with addition of an N-terminal reactive lysine residue was synthesized (KPSPTNYTNVSSDSSV, Peptide Protein Research Ltd, Fareham, UK). These peptides were conjugated to porcine thyroglobulin (Sigma-Aldrich, Gillingham, UK) as a carrier protein using 5% glutaraldehyde (Sigma-Aldrich, Gillingham, UK) in phosphate buffer (0.1 M; pH 7.2) and the conjugate was used for immunisation of a rabbit for ArSK/CCK1 (70-day protocol; Charles River Biologics, Romans, France) and a guinea pig for ArSK/CCKR (56-day protocol; Charles River Biologics, Romans, France). The antigens were emulsified in Freund’s complete adjuvant for primary immunisations (~100 nmol antigen peptide) and in Freund’s incomplete adjuvant for three booster immunisations (~50 nmol antigen peptide). The presence of antibodies to the antigen peptides in post-immunisation serum samples was assessed using an enzyme-linked immunosorbent assay (ELISA), in comparison with pre-immune serum (Figure 5—figure supplement 1a; Figure 6—figure supplement 1). Antibodies to the antigen peptides were purified from the final bleed antiserum by affinity purification using the AminoLink Plus Immobilization Kit (Thermo Fisher Scientific, Waltham, MA), with bound antibodies eluted using glycine elution buffer (6.3 ml of 100 mM glycine [VWR Chemicals, Leicestershire, UK] and 0.7 ml of Tris [1 M, pH = 7.0]) and […] (TEA) elution buffer (6.3 ml of TEA [Sigma-Aldrich, Gillingham, UK] and 0.7 ml of Tris [1 M, pH = 7.0]). Eluates were dialyzed and sodium azide (0.1%) was added for long-term storage of the affinity-purified antibodies at 4°C. The specificity of ArSK/CCK1 antibodies eluted with TEA, which were subsequently used for immunohistochemistry (see below), was assessed by ELISA by testing them at a concentration of 1:10 with the following synthetic peptides (100 µl at a concentration of 1 µM dissolved in carbonate/bicarbonate buffer [25 mM sodium carbonate, 25 mM sodium bicarbonate, pH = 9.8]): ArSK/CCK1, ArSK/CCK2, ArSK/CCK2(ns) and the A. rubens luqin-type peptide ArLQ (Figure 5—figure supplement 1b). The rabbit antiserum to ArSK/CCK1 has been assigned the RRID:AB_2877176 and the guinea pig antiserum to ArSK/CCKR has been assigned the RRID:AB_2891354.

[2] = tested on: cardiac stomach preparations; settings: cited from earlier work
Source text: (§1) Extra-oral feeding in starfish requires relaxation of muscle in the wall of the cardiac stomach and in intrinsic and extrinsic retractor strands to enable stomach eversion. Then when external digestion and ingestion of prey tissue is completed, contraction of the musculature enables cardiac stomach retraction ([Anderson, 1954]). Previous studies have identified neuropep ...

[3] = tested on: Asterias rubens; settings: cited from earlier work
Source text: as §1

[4] = biological target: T1, ArSK/CCKR (Asterias rubens, UniProt A0A8F2ZGB9); test: Aequorin bioluminescence receptor assay in CHO-K1 cells (G5A) co-transfected with ArSK/CCKR and human Gα16; format: cell-based; settings: 10^–12 to 10^–4 M; at least three independent experiments in triplicate
T1 sequence (A0A8F2ZGB9 1-434): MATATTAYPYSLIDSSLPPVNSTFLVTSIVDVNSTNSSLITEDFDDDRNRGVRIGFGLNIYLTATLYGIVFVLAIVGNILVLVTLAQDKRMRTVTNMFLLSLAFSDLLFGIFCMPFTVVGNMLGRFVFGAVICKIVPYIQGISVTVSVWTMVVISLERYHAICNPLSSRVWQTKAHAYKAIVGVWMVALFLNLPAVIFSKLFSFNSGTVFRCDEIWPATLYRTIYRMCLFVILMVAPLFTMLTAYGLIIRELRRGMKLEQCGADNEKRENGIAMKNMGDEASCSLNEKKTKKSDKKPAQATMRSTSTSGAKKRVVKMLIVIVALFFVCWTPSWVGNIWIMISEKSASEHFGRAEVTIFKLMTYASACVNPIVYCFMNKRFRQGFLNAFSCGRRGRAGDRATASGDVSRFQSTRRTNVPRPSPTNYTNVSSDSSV
Source text: To enable testing of ArSK/CCK1 and ArSK/CCK2 as candidate ligands for ArSK/CCKR, a full-length cDNA encoding ArSK/CCKR was synthesized by GenScript (Piscataway, NJ) and cloned into pcDNA 3.1+ vector (Invitrogen, Thermo Fisher Scientific, Waltham, MA). A partial Kozak translation initiation sequence (CACC) was introduced upstream to the start codon (ATG). CHO-K1 cells stably expressing the mitochondrial targeted calcium-sensitive bioluminescent reporter GFP-aequorin fusion protein (G5A) ([Baubet et al., 2000]) were used as a heterologous expression system for ArSK/CCKR. These cells have been used previously for neuropeptide receptor deorphanisation ([Bauknecht and Jékely, 2015]) and were generously supplied to us by Dr Gáspár Jékely (University of Exeter). The cell line was generated using the CHO-K1 cell line from Sigma-Aldrich (85051005; RRID: CVCL_0214), which is certified by the European Collection of Authenticated Cell Cultures (ECACC), and expression of the GFP-aequorin fusion protein (G5A) in the cell line was determined by functionality in displaying calcium-activated luminescence. […] Cells were cultured, co-transfected with the pcDNA 3.1+ vector containing the ArSK/CCKR cDNA sequence and plasmids encoding the promiscuous human G-protein Gα16. Then bioluminescence-based receptor assays were performed, as described previously for A. rubens luqin-type receptors ([Yañez-Guerra et al., 2018]).
[…] Concentration-response data were determined as a percentage of the highest response for each peptide (100% activation). EC50 values were calculated from concentration-response curves based on four to six independent transfections and averaging two to three replicates in each transfection using Prism 6.0 (RRID:SCR_002798; GraphPad software, La Jolla, CA). Cells transfected with an empty vector were used for control experiments.

[5] = tested on: Asterias rubens; settings: injected in vivo; ref Tinoco et al., 2018; cited from earlier work
Source text: The in vivo effect of SK/CCK-type neuropeptides in triggering cardiac stomach retraction is indicative of a role in physiological mechanisms that control termination of feeding behaviour in starfish. […] Accordingly, here we observed that starfish injected with SK/CCK-type neuropeptides took longer to enclose prey compared to control animals injected with water. Further ...

[6] = biological target: Asterias rubens SK/CCK-type receptor (ArSK/CCKR) (Asterias rubens)

Molecule: EEKTRFPKFMRW-NH2 [ArLQ, A. rubens luqin-type neuropeptide …-NH2, reference compound]
ELISA reactivity (optical density) with antibodies to ArSK/CCK1 [1]: do not cross-react

Molecule: SGPYSFNSGLTF-NH2 [S2, SALMFamide neuropeptide S2 (…-NH2)]
effect on cardiac stomach in vitro ([2]; ref Melarange et al., 1999): cause relaxation
effect on cardiac stomach when injected in vivo ([3]; ref Melarange et al., 1999): trigger cardiac stomach eversion
activation of ArSK/CCKR (luminescence) [4]: inactive

Molecule: asterotocin
effect on cardiac stomach in vitro ([2]; ref Odekunle et al., 2019): cause relaxation
effect on cardiac stomach when injected in vivo ([3]; ref Odekunle et al., 2019): trigger cardiac stomach eversion

Molecule: GGGVPHVFQSGGIF-NH2 [ArTK2, A. rubens tachykinin-like peptide ([…]-NH2), reference compound]
activation of ArSK/CCKR (luminescence) [4]: inactive

Molecule: NGFFYamide
onset of feeding on prey (mussels) [5]: significant delay in the onset of feeding
effect on cardiac stomach in vitro ([2]; ref Semmens et al., 2013): triggers contraction
effect on everted cardiac stomach when injected in vivo ([3]; ref Semmens et al., 2013): retraction of the everted stomach

EC50 of concentration-dependent luminescence (calcium, GFP-aequorin G5A) in CHO-K1 cells transfected with ArSK/CCKR and human Gα16 [6]: 48000 nM
Molecule: GGDDQYGFGLFF-NH2 [ArSK/CCK2(ns), non-sulphated form of ArSK/CCK2, …-NH2]

EC50 of concentration-dependent luminescence (calcium, GFP-aequorin G5A) in CHO-K1 cells transfected with ArSK/CCKR and human Gα16 [6]: 0.25 nM
B1: ArSK/CCK1 (Asterias rubens sulfakinin/cholecystokinin-type neuropeptide 1), pQSKVDDY(SO3H)GHGLFW-NH2 (peptide)
peptide: [pGlu]SKVDDY(SO3H)GHGLFW-NH2
SMILES: CC(C)C[C@H](NC(=O)CNC(=O)[C@H](Cc1c[nH]cn1)NC(=O)CNC(=O)[C@H](Cc1ccc(OS(=O)(=O)O)cc1)NC(=O)[C@H](CC(=O)O)NC(=O)[C@H](CC(=O)O)NC(=O)[C@@H](NC(=O)[C@H](CCCCN)NC(=O)[C@H](CO)NC(=O)[C@@H]1CCC(=O)N1)C(C)C)C(=O)N[C@@H](Cc1ccccc1)C(=O)N[C@@H](Cc1c[nH]c2ccccc12)C(N)=O

EC50 of concentration-dependent luminescence (calcium, GFP-aequorin G5A) in CHO-K1 cells transfected with ArSK/CCKR and human Gα16 [6]: 0.12 nM
B2: ArSK/CCK2 (Asterias rubens sulfakinin/cholecystokinin-type neuropeptide 2), GGDDQY(SO3H)GFGLFF-NH2 (peptide)
peptide: GGDDQY(SO3H)GFGLFF-NH2
modifications: N-terminus assumed
SMILES: CC(C)C[C@H](NC(=O)CNC(=O)[C@H](Cc1ccccc1)NC(=O)CNC(=O)[C@H](Cc1ccc(OS(=O)(=O)O)cc1)NC(=O)[C@H](CCC(N)=O)NC(=O)[C@H](CC(=O)O)NC(=O)[C@H](CC(=O)O)NC(=O)CNC(=O)CN)C(=O)N[C@@H](Cc1ccccc1)C(=O)N[C@@H](Cc1ccccc1)C(N)=O
